From US12618045B2, “Automated method for preparing retinal pigment epithelium cells” (CENTRE D'ETUDE DES CELLULES SOUCHES (CECS), priority 2019, dated 2026)

Legend:
[1] = system: hESCs (hESC line RC-0913); test: Immunostaining of marker proteins during differentiation of hESCs; format: cell-based, human
Procedure: (§1) Clinical-grade hESC line RC-0913, was used and cultured in feeder free conditions using mTeSR™ Medium (StemCell technologies) and hESC qualified Matrigel (Corning). Cells were banked at passage 36 and used for RPE differentiation between passage 38 and 45. Cells were plated at 5×10^4 cells per cm^2 and grown until they reached 80 percent of confluence before switching to a differentiation medium composed of Dulbecco's modified Eagle's medium (high glucose, Thermo Fisher Scientific) supplemented with 50 μM β-mercaptoethanol, 1× minimum essential medium-nonessential amino acids (Thermo Fisher Scientific) and 20% (D0-D42) or 4% (after passage 1) of knockout serum replacement (KSR, Thermo Fisher Scientific). During all the differentiation process the medium was changed every 2/3 days.
(§2) For the referred “directed differentiation” protocol, 10 mM Nicotinamide (Sigma), 100 ng/ml Activin A
(§3) (Peprotech) and 3 μM CHIR99021 (Tocris) were added sequentially to the basal differentiation medium at specific time points (FIG. 2A).
hESC-RPE cells were grown on Matrigel-coated 96 or 24-well plates. Adherent cells were fixed in 4% PFA for 10 min at room temperature (RT) and rinsed 3 times with PBS. After 30 min in blocking solution (10% FBS in 0.1% Triton PBS) at RT, cells were incubated with primary antibodies overnight at 4° C. After 3 washes in PBS, appropriate Alexa Fluor-conjugated secondary antibodies (Invitrogen) were added at 1:500 for 1 h at RT in presence of DAPI (Invitrogen).
Images were acquired with an Axio observer Z1 microscope (Zeiss) with a Hamamatsu ORCA-flash 4.0 camera and a spinning disk unit (Yokogawa CSU-X1-A1N-E; Camera evolve, EMCCD 512) with Metamorph software or with a LSM-800 confocal microscope (Zeiss) with Zen software. Images were exported, analyzed and processed with Fiji software. […] The quantification of pigmented areas was performed after manual delimitation of culture dish areas using Fiji software. Pictures were then binarized to 8-bit images using a fixed intensity threshold and the black area fraction was measured (not herein shown).

[2] = system: hESCs (hESC line RC-0913); test: RT-qPCR of retinal development markers during differentiation of hESCs; format: cell-based, human
Procedure: as §1, §2, §3
Total RNAs were extracted using RNAeasy Plus Mini kit (Qiagen) and cDNA synthesized using SuperScript III (Invitrogen). Quantitative real-time RT-PCR was performed using a Quant Studio 12K flex (Applied Biosystems) with HiGreen qPCR Master Mix (Thermo Fisher Scientific). Experiments were performed with at least three technical replicates per plate and expression levels were normalized to 18S. Relative expression compared to hESCs gene expression levels were determined by calculating the 2-ΔΔCt.

[3] = CHIR99021 from day 14 to day 35-42

`Cc1c[nH]c(-c2cnc(NCCNc3ccc(C#N)cn3)nc2-c2ccc(Cl)cc2Cl)n1` [CHIR99021] was tested, and the “MITF+ cells” value ([1]; day 21, CHIR99021 from day 14) was 87.5%±12.5%, the VSX2 positive cells ([1]; day 21, CHIR99021 from day 14) was “absence” and the “MITF expression (mRNA)” value [2, 3] was “continuous increased expression”. For the same molecule, the “VSX2 mRNA levels” value [2, 3] was “acute decreased expression”.

With `NC(=O)c1cccnc1` [Nicotinamide] the “cells co-expressing LHX2 and PAX6 proteins” value ([1]; day 7 after Nicotinamide treatment, n=3) was 86.8%±4.3%, the “transient expression of early eye field transcription factors SIX3 and RAX (mRNA)” value ([2]; Nicotinamide 10 mM, first 7 days of differentiation, compared to spontaneous protocol, p<0.01) was “significantly enhanced” and the “expression of pluripotency marker NANOG (mRNA)” value ([2]; Nicotinamide 10 mM, first 7 days, compared to spontaneous protocol, p<0.01) was “higher decrease”.

B1: Activin A: member of TGF β superfamily, second differentiating agent, 100 ng/ml (Peprotech) (protein, UniProt P08476 311-426, looked up)
Inhibin beta A chain: GLECDGKVNICCKKQFFVSFKDIGWNDWIIAPSGYHANYCEGECPSHIAGTSGSSLSFHSTVINHYRMRGHSPFANLKSCCVPTKLRPMSMLYYDDGQNIIKKDIQNMIVEECGCS
modifications: Inhibin beta A chain
With B1 the “RAX and SIX3 mRNA levels” value ([2]; Activin A day 7 to day 14) was “decreased” and the “expression of optic vesicle transcription factors VSX2 and MITF (mRNA)” value ([2]; Activin A day 7 to day 14, compared to spontaneous differentiation, p≤0.05) was “significantly increased”.
